Measurements reported in patent US9718835B2 (China Medical University Hospital, priority 2013, dated 2017).

Assays:
[1] = test system: DU-145 (hormone-insensitive prostate cancer); test: Sulforhodamine B cytotoxicity assay, DU-145; assay type: cell-based, human; conditions: Table 1; 72 h; average ± SD
Experimental: The 12 novel 1-derivatives 9a-l were evaluated for in vitro antiproliferative activity against four human tumor cell lines, KB (nasopharyngeal), A-549 (lung), DU-145 (prostate), and KBvin (MDR KB subline), by using a sulforhodamine B colorimetric assay with triplicate experiments.^30 Compounds 1 and 3 were used as controls.
(§1) The human tumor cell lines used in this manuscript were A-549 (lung carcinoma), MDA-MB-231 (triple-negative breast cancer), DU-145 (hormone-insensitive prostate cancer), KB (originally isolated from epidermoid carcinoma of the nasopharynx), KBvin (vincristine-resistant KB subline), and HCT116 (colorectal adenocarcinoma). These cell lines were obtained from the Lineberger Comprehensive Cancer Center (UNC-CH) or from ATCC (Manassas, Va.), except KBvin, which was a generous gift of Professor Y.-C. Cheng (Yale University). All cell lines were maintained and assayed in RPMI-1640 medium containing 2 mM L-glutamine and 25 mM HEPES (HyClone), supplemented with 10% heat-inactivated fetal bovine serum (HyClone), 100 μg/mL streptomycin, 100 IU/mL penicillin, and 0.25 μg/mL amphotericin B (Cellgro) in a humidified atmosphere containing 5% CO2 in air. Compound stock solutions were prepared at 10 mM in DMSO and diluted with culture medium with the final DMSO concentration ≦0.01% (v/v), a concentration without effect on cell growth. The 4-6×10^3 cells/well were cultured for 72 h with various concentrations of test compounds in 96-well plate at 37° C. […] Each assay was performed in triplicate with duplicated samples.

Topo I = molecular target: T1, Topo I (Homo sapiens, UniProt P11387); test: Topo I activity assay, nuclear extracts of treated A-549 cells, supercoiled DNA; assay type: cell-based; set-up: Nuclear extracts from 9a-treated A-549 cells were incubated with supercoiled DNA (for Topo I); endogenous in cells; host or cells: A-549
T1 sequence (P11387 1-765): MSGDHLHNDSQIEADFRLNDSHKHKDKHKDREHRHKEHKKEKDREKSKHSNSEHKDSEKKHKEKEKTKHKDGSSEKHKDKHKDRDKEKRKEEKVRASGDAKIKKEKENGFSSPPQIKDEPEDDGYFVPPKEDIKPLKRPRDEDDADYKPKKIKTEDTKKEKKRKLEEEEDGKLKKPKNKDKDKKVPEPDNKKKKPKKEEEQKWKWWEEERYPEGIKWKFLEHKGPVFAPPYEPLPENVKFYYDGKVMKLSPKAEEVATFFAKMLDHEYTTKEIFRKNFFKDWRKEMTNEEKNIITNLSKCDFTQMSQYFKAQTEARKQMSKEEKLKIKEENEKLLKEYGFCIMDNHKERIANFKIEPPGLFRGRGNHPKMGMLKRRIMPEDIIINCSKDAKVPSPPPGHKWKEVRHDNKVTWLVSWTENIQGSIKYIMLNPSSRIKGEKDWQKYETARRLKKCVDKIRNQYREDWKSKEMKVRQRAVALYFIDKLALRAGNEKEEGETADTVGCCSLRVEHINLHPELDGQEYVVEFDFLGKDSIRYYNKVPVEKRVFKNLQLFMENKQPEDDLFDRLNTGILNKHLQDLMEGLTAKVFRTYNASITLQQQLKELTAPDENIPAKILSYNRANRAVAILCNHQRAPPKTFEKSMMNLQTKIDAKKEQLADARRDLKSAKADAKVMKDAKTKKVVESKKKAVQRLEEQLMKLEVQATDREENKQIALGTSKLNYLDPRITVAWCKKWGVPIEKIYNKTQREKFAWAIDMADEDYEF
Experimental: (§2) First, we determined the effect of 9a on cell cycle distribution using flow cytometry analysis. […] Because it has been shown that 1-Topo I-DNA covalent complexes enhance the transcription-dependent degradation of Topo I via a 26S proteasome pathway,^32 the effects of 9a on the expression levels of Topo I and Topo II were investigated.
Topo I activity test was performed using an assay kit (TopoGEN) according to the manufacturer's instructions. Nuclear extracts from 9a-treated A-549 cells were incubated with supercoiled DNA (for Topo I) or catenated kDNA (for Topo II) for 30 min at 37° C. Reaction mixture was separated by is 1% agarose gel in 1×TAE buffer. The gel was stained with ethidium bromide and photographed using Gel Doc XR (Bio-Rad).

A-549 cells [2] = test: Apoptosis assessment, Annexin V-FITC/propidium iodide double staining; assay type: cell-based, human
Experimental: Initially, we investigated morphological cellular changes. […] PARP, a hallmark of apoptosis, was also activated by 9a.
Apoptosis was detected by Annexin V-FITC/propidium iodide double staining kit (BD Biosciences). A-549 cells were treated with 9a for 24 h or 48 h. Cells were harvested by trypsinization and washed with ice-cold PBS. Cells were labeled with annexin V-FITC and propidium iodide for 15 min at room temperature in the dark. Labeled cells were analyzed by FACSCalibur flow cytometer (Becton Dickinson).

A-549 (lung carcinoma) = test: Sulforhodamine B cytotoxicity assay, A-549; assay type: cell-based, human; conditions: Table 1; 72 h; average ± SD
Excerpt: as §1, with “Compound stock solutions were prepared at 10 mM in DMSO and diluted with culture medium with the final DMSO concentration ≦0.01% (v/v), a concentration without effect on cell growth.” left out

A-549 cells [3] = test: Cell cycle analysis by flow cytometry; assay type: cell-based, human; conditions: A-549, 24 h treatment
Excerpt: as §2, with “investigated. […] Compound 9a acts directly on Topo I and results in the accumulation of covalent Topo I-DNA complexes followed by proteasomal Topo I degradation, which is the same effect as 1 and contributes to 9a's cytotoxicity.” for “investigated.”
A-549 cells were fixed with ice-cold 70% EtOH followed by propidium iodide staining Samples were analyzed by a flow cytometer for cell cycle determination. Population of each cell cycle phase was calculated based on the ploidy (<2N as sub-G1; 2N as G1; between 2N and 4N as S; 4N as G2/M), and evaluated statistically by Student's t-test (P<0.01).

For CC[C@@]1(OC(=O)CNC(Cc2ccc(OC)cc2)=NS(=O)(=O)c2ccc(C)cc2)C(=O)OCc2c1cc1n(c2=O)Cc2cc3ccccc3nc2-1 [Compound 9a], the IC50 [1] was 50 ± 3.8 nM, the “Topo I-mediated relaxation of supercoiled DNA” value (Topo I) was “inhibited the relaxation of supercoiled DNA” and the “annexin V positive cell population” value (A-549 cells [2]; A-549, 24 h, vehicle […]) was 3.7%. The “annexin V positive cell population” value (A-549 cells [2]; A-549, 48 h, vehicle 2.0%) was 34.1%, the IC50 (A-549 (lung carcinoma)) was 31 ± 3.5 nM and the cell cycle distribution (A-549 cells [3]) was “increased cell populations in S and sub-G1 phases”.
